The target of this test is Human recombinant PDE10A2 (Homo sapiens (Human), UniProt Q9Y233). As to the kind of experiment: In vitro hPDE10a: human recombinant PDE10A2 scintillation proximity assay, IC50. It counts as biochemical. As to conditions: human recombinant PDE10A2, SPA, 60 nM cAMP; read-out: hPDE10a2 IC50. The procedure:
Cells were harvested and the phosphodiesterase protein was purified by metal chelate chromatography on Ni-sepharose 6FF. The affinity of the compounds of Formula (I) for phophodiesterases (PDE) was measured by a scintillation proximity assay (SPA). PDE Yttrium Silicate SPA beads allow PDE activity to be measured by direct binding of the primary phosphate groups of non-cyclic AMP or GMP to the beads via a complex iron chelation mechanism. The amount of bound tritiated product ([^3H]-AMP) is measured by liquid scintillation counting. The compounds were dissolved and diluted in 100% DMSO in polystyrene plates to a concentration of 100-fold the final concentration in the assay. […] After incubation, the reaction was stopped with 20 μL of stop solution, consisting of PDE SPA beads (17.8 mg beads/mL in 18 mM zinc sulphate). […] To measure the low control, no enzyme was added to the reaction mixture. Data were calculated as the percentage of inhibition of total activity measured in the absence of test compound (% control). […] For compounds tested more than once, the data points were aggregated.

Each structure is given as a SMILES string. pIC50: −log10 of the molar value. Where a name gives a salt, the structure may show the parent alone. Residues, ends and D or L forms follow the SMILES beside them. *: point of attachment. X1 = O=C(c1ccc(-c2c(C#Cc3ccc4ccccc4n3)nc3c(N4CCOCC4)ccnn23)cc1)*

Chain of Human recombinant PDE10A2 (Q9Y233 267-1055): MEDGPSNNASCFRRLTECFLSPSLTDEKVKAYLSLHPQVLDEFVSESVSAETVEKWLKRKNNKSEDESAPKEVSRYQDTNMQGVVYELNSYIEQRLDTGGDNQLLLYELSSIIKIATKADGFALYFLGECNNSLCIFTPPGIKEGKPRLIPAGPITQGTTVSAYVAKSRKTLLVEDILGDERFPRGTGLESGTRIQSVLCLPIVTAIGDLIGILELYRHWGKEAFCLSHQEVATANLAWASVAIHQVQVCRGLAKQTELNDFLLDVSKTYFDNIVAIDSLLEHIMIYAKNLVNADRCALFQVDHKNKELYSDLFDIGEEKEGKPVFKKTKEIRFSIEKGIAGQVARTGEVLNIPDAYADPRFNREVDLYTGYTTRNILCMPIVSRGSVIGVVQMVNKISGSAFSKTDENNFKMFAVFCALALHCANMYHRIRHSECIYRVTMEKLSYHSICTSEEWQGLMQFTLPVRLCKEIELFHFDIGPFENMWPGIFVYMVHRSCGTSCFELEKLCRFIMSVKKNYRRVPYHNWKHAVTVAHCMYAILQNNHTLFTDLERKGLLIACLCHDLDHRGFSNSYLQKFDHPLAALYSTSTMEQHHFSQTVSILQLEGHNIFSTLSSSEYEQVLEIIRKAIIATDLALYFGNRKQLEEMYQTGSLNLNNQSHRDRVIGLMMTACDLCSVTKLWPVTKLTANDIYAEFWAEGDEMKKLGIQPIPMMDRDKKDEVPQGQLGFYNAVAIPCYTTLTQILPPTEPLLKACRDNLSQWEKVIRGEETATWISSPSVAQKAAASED

Turning to `O=C(O)c1ccc(-c2c([C@@H]3C[C@@H]3c3ccc4ccccc4n3)nc3c(N4CCOCC4)cc(Cl)nn23)cc1F` [Cpd 165, 4-(6-Chloro-8-morpholino-2-((1R,2S)-2-(quinolin-2-yl)cyclopropyl)imidazo[1,2-b]pyridazin-3-yl)-2-fluorobenzoic acid trifluoroacetic acid salt], the pIC50 is 7.92.
Then `Cn1nc(-c2ccc(-c3c(/C=C/c4ccc5ccccc5n4)nc4c(N5CCOCC5)ccnn34)cc2F)[nH]c1=O` [Cpd 163, (E)-5-(2-Fluoro-4-(8-morpholino-2-(2-(quinolin-2-yl)vinyl)imidazo[1,2-b]pyridazin-3-yl)phenyl)-2-methyl-2H-1,2,4-triazol-3(4H)-one], with 7.92; and `CC(=O)c1ccc(-c2c(C#Cc3ccc4ccccc4n3)nc3c(N4CCOCC4)ccnn23)cc1` [Cpd 159, 1-(4-(8-Morpholino-2-(quinolin-2-ylethynyl)imidazo[1,2-b]pyridazin-3-yl)phenyl)ethanone], with 8.05; and `CC(C)(C(=O)O)c1ccc(-c2c([C@H]3C[C@H](c4ccc5ccccc5n4)C3)nc3c(N4CCOCC4)ccnn23)cc1` [Cpd 171, 2-Methyl-2-(4-(8-morpholino-2-((1R,3R)-3-(quinolin-2-yl)cyclobutyl)imidazo[1,2-b]pyridazin-3-yl)phenyl)propanoic acid], with 8.70.
Then `c1ccc2nc(C3CC3c3cn4nccc(N5CCOCC5)c4n3)ccc2c1` (stereo not drawn) [Cpd 161, 2-[2-(8-Morpholin-4-ylimidazo[1,2-b]pyridazin-2-yl)cyclopropyl]quinoline], with 8.40.
Regarding `O=C(O)c1ccc(-c2c([C@H]3C[C@@H](c4ccc5ccccc5n4)C3)nc3c(N4CCOCC4)ccnn23)cc1` [compound 167, 4-(8-Morpholino-2-((1s,3s)-3-(quinolin-2-yl)cyclobutyl)imidazo[1,2-b]pyridazin-3-yl)benzoic acid trifluoroacetic acid salt], the pIC50 is 7.89.
With `O=C(O)[C@H]1C[C@@H]1c1ccc(-c2c([C@H]3C[C@H](c4ccc5ccccc5n4)C3)nc3c(N4CCOCC4)ccnn23)cc1` [Cpd 170, (1R,2S)-2-(4-(8-Morpholino-2-((1R,3S)-3-(quinolin-2-yl)cyclobutyl)imidazo[1,2-b]pyridazin-3-yl)phenyl)cyclopropanecarboxylic acid], the pIC50 was 9.00.
`NCC(=O)N[C@@H](CCCCNC(=O)c1ccc(-c2c(C#Cc3ccc4ccccc4n3)nc3c(N4CCOCC4)ccnn23)cc1)C(N)=O` [Cpd 181, (S)—N-(6-amino-5-(2-aminoacetamido)-6-oxohexyl)-4-(8-morpholino-2-(quinolin-2-ylethynyl)imidazo[1,2-b]pyridazin-3-yl)benzamide]: the pIC50 was 8.22.
Regarding `O=C(O)c1ccc(-c2c([C@H]3C[C@H](c4ccc5ccccc5n4)C3)nc3c(N4CCOCC4)cc(Cl)nn23)cc1` [compound 160, 4-(6-Chloro-8-morpholino-2-((1r,3r)-3-(quinolin-2-yl)cyclobutyl)imidazo[1,2-b]pyridazin-3-yl)benzoic acid trifluoroacetic acid salt], the pIC50 was 9.00.
Next, `O=C(O)C1CCN(c2ccc(-c3c([C@H]4C[C@@H](c5ccc6ccccc6n5)C4)nc4c(N5CCOCC5)ccnn34)cc2)CC1` [compound 166, 1-(4-(8-Morpholino-2-((1s,3s)-3-(quinolin-2-yl)cyclobutyl)imidazo[1,2-b]pyridazin-3-yl)phenyl)piperidine-4-carboxylic acid]: 7.03.
For `CC(C)(CC(=O)O)c1ccc(-c2c([C@H]3C[C@H](c4ccc5ccccc5n4)C3)nc3c(N4CCOCC4)ccnn23)cc1` [Cpd 172, 3-Methyl-3-{4-[8-morpholin-4-yl-2-(trans-3-quinolin-2-ylcyclobutyl)imidazo[1,2-b]pyridazin-3-yl]phenyl}butanoic acid], the pIC50 was 9.00.
`O=c1[nH]nc(-c2ccc(-c3c(/C=C/c4ccc5ccccc5n4)nc4c(N5CCOCC5)ccnn34)cc2F)[nH]1` [Cpd 162, (E)-5-(2-Fluoro-4-(8-morpholino-2-(2-(quinolin-2-yl)vinyl)imidazo[1,2-b]pyridazin-3-yl)phenyl)-2H-1,2,4-triazol-3(4H)-one]: the pIC50 is 8.05.
Then `CC(C)C[C@H](NC(=O)[C@H](C)N)C(=O)N[C@@H](C)C(=O)N[C@@H](CCCCNC(=O)c1ccc(-c2c(C#Cc3ccc4ccccc4n3)nc3c(N4CCOCC4)ccnn23)cc1)C(N)=O` [Cpd 178, N—((S)-6-amino-5-((S)-2-((S)-2-((S)-2-aminopropanamido)-4-methylpentanamido)propanamido)-6-oxohexyl)-4-(8-morpholino-2-(quinolin-2-ylethynyl)imidazo[1,2-b]pyridazin-3-yl)benzamide] (H-ALAK(X1)-NH2), with 7.96; and `NC(=O)[C@@H](N)CCCCNC(=O)c1ccc(-c2c(C#Cc3ccc4ccccc4n3)nc3c(N4CCOCC4)ccnn23)cc1` [Cpd 180, (S)—N-(5,6-diamino-6-oxohexyl)-4-(8-morpholino-2-(quinolin-2-ylethynyl)imidazo[1,2-b]pyridazin-3-yl)benzamide], with 8.30.
Regarding `O=c1ncn(-c2ccc(-c3c(/C=C/c4ccc5ccccc5n4)nc4c(N5CCOCC5)ccnn34)cc2F)[nH]1` [Cpd 158, (E)-1-(2-Fluoro-4-(8-morpholino-2-(2-(quinolin-2-yl)vinyl)imidazo[1,2-b]pyridazin-3-yl)phenyl)-1,2-dihydro-1,2,4-triazol-3-one], the pIC50 is 8.30.
Next, `O=C(O)CC1(c2ccc(-c3c([C@H]4C[C@H](c5ccc6ccccc6n5)C4)nc4c(N5CCOCC5)ccnn34)cc2)COC1` [Cpd 174, 2-(3-(4-(8-Morpholino-2-((1R,3R)-3-(quinolin-2-yl)cyclobutyl)imidazo[1,2-b]pyridazin-3-yl)phenyl)oxetan-3-yl)acetic acid]: 9.00; `C[C@H](N)C(=O)N[C@@H](CCCCNC(=O)c1ccc(-c2c(C#Cc3ccc4ccccc4n3)nc3c(N4CCOCC4)ccnn23)cc1)C(N)=O` [Cpd 179, N—((S)-6-amino-5-((S)-2-aminopropanamido)-6-oxohexyl)-4-(8-morpholino-2-(quinolin-2-ylethynyl)imidazo[1,2-b]pyridazin-3-yl)benzamide]: 8.30; `O=C(O)c1ccc(-c2c(/C=C/c3ccc4c(n3)CCCC4)nc3c(N4CCOCC4)ccnn23)cn1` [Cpd 107, (E)-5-(8-morpholino-2-(2-(5,6,7,8-tetrahydroquinolin-2-yl)vinyl)imidazo[1,2-b]pyridazin-3-yl)picolinic acid trifluoroacetic acid salt]: 7.92.

As usually defined, the pIC50 is the negative decadic logarithm of the IC50, by convention in mol/L.

For the origin of these results see US9193736B2, “PDE 10a inhibitors for the treatment of type II diabetes” (Janssen Pharmaceutica, NV, priority 2013, dated 2015).
